Laboratory results as given in patent US8609610B2, “Inhibitors of the trypsin-like site of the proteasome and methods of use thereof” (Trustees of Dartmouth College, priority 2011, dated 2013).

Assays:
Type in all cases: cell-based
[1] = target: T1, chymotrypsin-like sites (β5) of proteasome in MM cells (Homo sapiens, UniProt P28074); experiment: PROTEASOMEGLO assay of proteasome inhibition in MM cells
T1 sequence (P28074 60-263): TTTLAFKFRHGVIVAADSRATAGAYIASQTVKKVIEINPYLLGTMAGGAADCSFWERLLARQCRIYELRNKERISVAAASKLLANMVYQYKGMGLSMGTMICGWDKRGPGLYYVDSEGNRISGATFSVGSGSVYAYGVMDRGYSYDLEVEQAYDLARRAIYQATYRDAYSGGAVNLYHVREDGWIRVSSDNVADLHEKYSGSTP
Experimental: (§1) Proteasome inhibition in MM cells was measured with luminogenic substrates using PROTEASOMEGLO assay (Promega). […] An aliquot of culture was pelleted and medium was removed and replaced with PBS. The resulting cell suspension was mixed with luminogenic substrates in the manufacturer-provided lysis/assay buffer. After 3 minutes mixing on an orbital shaker, the plate was incubated in the dark for additional 17 minutes, followed by the measurements of the luminescence, performed in triplicate for each substrate/data point. Data were analyzed as for purified proteasomes. […] Cells (1×10^6 per well of a 6-well plate) were incubated with the inhibitors for 4 hours at 37° C. and this was followed by a 2 hour incubation with 5 μM BODIPY-TMR-epoxomicin. Subsequently, the medium was removed and the cells were washed with PBS and harvested. […] The supernatant was collected and the protein concentration was determined by the Bradford assay, and used to normalize gel loading. The samples were analysed by SDS-PAGE and fluorescent densitometry as described for competition experiment in cell lysates. IC50 values were calculated from three independent experiments using […] PRISM software.

[2] = target: T2, trypsin-like sites (β2) of proteasome in MM cells (Homo sapiens, UniProt Q99436); experiment: as above
T2 construct: endogenous in cells; host or cells: NCI-H929, RPMI-8226 and other MM cell lines
T2 sequence (Q99436 44-277): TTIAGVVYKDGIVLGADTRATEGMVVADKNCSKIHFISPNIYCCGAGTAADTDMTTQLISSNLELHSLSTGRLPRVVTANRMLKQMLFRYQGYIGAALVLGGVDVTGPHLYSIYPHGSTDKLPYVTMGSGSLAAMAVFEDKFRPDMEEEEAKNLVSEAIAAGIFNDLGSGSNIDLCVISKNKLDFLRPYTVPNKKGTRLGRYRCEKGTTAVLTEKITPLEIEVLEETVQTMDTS
Experimental: as §1

[3] = target: T3, caspase-like sites (β1) of proteasome in MM cells (Homo sapiens, UniProt P28072+Q99436); experiment: as above
T3 sequence (P28072 35-239): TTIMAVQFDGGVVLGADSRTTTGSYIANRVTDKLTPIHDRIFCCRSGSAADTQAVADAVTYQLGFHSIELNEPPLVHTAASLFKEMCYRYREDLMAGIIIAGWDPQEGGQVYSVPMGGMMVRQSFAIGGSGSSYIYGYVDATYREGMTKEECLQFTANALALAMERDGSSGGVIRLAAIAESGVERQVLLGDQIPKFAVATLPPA
T3 sequence (Q99436 44-277): T2 sequence (Q99436 44-277)

KMS-18 cells = experiment: ALAMAR BLUE cell viability assay; conditions: then 48 h
Experimental: (§2) RPMI-8226 and NCI-H929 cells were cultured in RPMI-1640 supplemented with 10% fetal bovine serum, penicillin, streptomycin, and plasmocin in 5% CO2 humidified incubator. HEK-293T cells were cultured in DMEM containing 10% fetal calf serum, 10 units/mL penicillin, and 10 μg/mL streptomycin in a 7% CO2 humidified incubator. Viability of multiple myeloma cells was measured with ALAMAR BLUE mitochondrial dye conversion assay. Viability of peripheral blood mononuclear cells (PBMNCs) was measured using CELL TITER-GLO luminescent cell viability assay (Promega), which is based on quantification of ATP present in the cells. Caspase-3/7 activity was measured using APO-ONE 3/7 homogeneous assay (Promega).

MM1.R cells = experiment: ALAMAR BLUE cell viability assay; conditions: LU-005 0.004 μM 1 h, then 48 h
Experimental: as §2

NCI-H929 cells = experiment: ALAMAR BLUE cell viability assay; conditions: NCI-H929, then 48 h
Experimental: as §2

KMS-12-BM cells = experiment: ALAMAR BLUE cell viability assay; conditions: then 48 h
Experimental: as §2

RPMI-8226 cells = experiment: ALAMAR BLUE cell viability assay; conditions: RPMI-8226, then 48 h
Experimental: as §2

## CC(C)C[C@H](NC(=O)[C@H](Cc1c(F)c(F)c(F)c(F)c1F)NC(=O)[C@H](Cc1ccccc1)NC(=O)[C@H](Cc1ccccc1)N=[N+]=[N-])C(=O)[C@@]1(C)CO1 [LU-005]
[1]; KMS-12-BM, LU-005 0.037 μM 1 h
  Inhibition of active sites β5: 48 ± 9 % control
[1]; KMS-12-BM, LU-005 0.33 μM 1 h
  Inhibition of active sites β5: 81 ± 3 % control
[1]; KMS-12-BM, LU-005 1.0 μM 1 h
  Inhibition of active sites β5: 95 ± 2 % control
[1]; KMS-18, LU-005 0.037 μM 1 h
  Inhibition of active sites β5: 14 % control
[1]; KMS-18, LU-005 0.33 μM 1 h
  Inhibition of active sites β5: 69 ± 8 % control
[1]; KMS-18, LU-005 1.0 μM 1 h
  Inhibition of active sites β5: 85 ± 6 % control
[1]; KMS-18, LU-005 3.0 μM 1 h
  Inhibition of active sites β5: 94 ± 4 % control
[1]; KMS-18, LU-005 9.0 μM 1 h
  Inhibition of active sites β5: 97 ± 1 % control
[1]; MM1.R, LU-005 0.004 μM 1 h
  Inhibition of active sites β5: 17 ± 4 % control
[1]; NCI-H929, LU-005 0.0014 μM 1 h
  Inhibition of active sites β5: 22 ± 4 % control
[1]; NCI-H929, LU-005 0.004 μM 1 h
  Inhibition of active sites β5: 22 ± 11 % control
[1]; RPMI-8226, LU-005 0.037 μM 1 h
  Inhibition of active sites β5: 45 ± 26 % control
[1]; RPMI-8226, LU-005 0.33 μM 1 h
  Inhibition of active sites β5: 62 ± 32 % control
[1]; RPMI-8226, LU-005 1.0 μM 1 h
  Inhibition of active sites β5: 82 ± 16 % control
[2]; KMS-12-BM, LU-005 0.037 μM 1 h
  Inhibition of active sites β2: −12 ± 1 % control
[2]; KMS-12-BM, LU-005 0.33 μM 1 h
  Inhibition of active sites β2: 3 ± 18 % control
[2]; KMS-12-BM, LU-005 1.0 μM 1 h
  Inhibition of active sites β2: 29 ± 7 % control
[2]; KMS-18, LU-005 0.037 μM 1 h
  Inhibition of active sites β2: −13 ± 13 % control
[2]; KMS-18, LU-005 0.33 μM 1 h
  Inhibition of active sites β2: 24 ± 6 % control
[2]; KMS-18, LU-005 1.0 μM 1 h
  Inhibition of active sites β2: 38 ± 5 % control
[2]; KMS-18, LU-005 3.0 μM 1 h
  Inhibition of active sites β2: 50 ± 14 % control
[2]; KMS-18, LU-005 9.0 μM 1 h
  Inhibition of active sites β2: 62 ± 5 % control
[2]; MM1.R, LU-005 0.004 μM 1 h
  Inhibition of active sites β2: 6.5 ± 0.5 % control
[2]; NCI-H929, LU-005 0.0014 μM 1 h
  Inhibition of active sites β2: −9 ± 2 % control
[2]; NCI-H929, LU-005 0.004 μM 1 h
  Inhibition of active sites β2: −13 ± 7 % control
[2]; RPMI-8226, LU-005 0.037 μM 1 h
  Inhibition of active sites β2: 1 ± 17 % control
[2]; RPMI-8226, LU-005 0.33 μM 1 h
  Inhibition of active sites β2: 13 ± 11 % control
[2]; RPMI-8226, LU-005 1.0 μM 1 h
  Inhibition of active sites β2: 22 ± 19 % control
[3]; KMS-12-BM, LU-005 0.037 μM 1 h
  Inhibition of active sites β1: −1 ± 5 % control
[3]; KMS-12-BM, LU-005 0.33 μM 1 h
  Inhibition of active sites β1: 6 ± 12 % control
[3]; KMS-12-BM, LU-005 1.0 μM 1 h
  Inhibition of active sites β1: 11 ± 16 % control
[3]; KMS-18, LU-005 0.037 μM 1 h
  Inhibition of active sites β1: 0 ± 8 % control
[3]; KMS-18, LU-005 0.33 μM 1 h
  Inhibition of active sites β1: 29 ± 7 % control
[3]; KMS-18, LU-005 1.0 μM 1 h
  Inhibition of active sites β1: 32 ± 4 % control
[3]; KMS-18, LU-005 3.0 μM 1 h
  Inhibition of active sites β1: 39 ± 12 % control
[3]; KMS-18, LU-005 9.0 μM 1 h
  Inhibition of active sites β1: 42 ± 2 % control
[3]; MM1.R, LU-005 0.004 μM 1 h
  Inhibition of active sites β1: 6 ± 8 % control
[3]; NCI-H929, LU-005 0.0014 μM 1 h
  Inhibition of active sites β1: −14 ± 15 % control
[3]; NCI-H929, LU-005 0.004 μM 1 h
  Inhibition of active sites β1: −7 ± 10 % control
[3]; RPMI-8226, LU-005 0.037 μM 1 h
  Inhibition of active sites β1: 16 ± 7 % control
[3]; RPMI-8226, LU-005 0.33 μM 1 h
  Inhibition of active sites β1: 37 ± 15 % control
[3]; RPMI-8226, LU-005 1.0 μM 1 h
  Inhibition of active sites β1: 37 ± 4 % control
KMS-18 cells; LU-005 0.037 μM 1 h
  Viability +NC-002 & NC-001: 79 ± 14 % control
  Viability +NC-022: 104 ± 3 % control
  Viability −NC-022: 108 ± 1 % control
KMS-18 cells; LU-005 0.33 μM 1 h
  Viability +NC-002 & NC-001: 33 ± 20 % control
  Viability +NC-022: 106 ± 16 % control
  Viability −NC-022: 108 ± 0 % control
KMS-18 cells; LU-005 1.0 μM 1 h
  Viability +NC-002 & NC-001: 8 ± 4 % control
  Viability +NC-022: 29 ± 12 % control
  Viability −NC-022: 88 ± 16 % control
KMS-18 cells; LU-005 3.0 μM 1 h
  Viability +NC-002 & NC-001: 1 ± 0.1 % control
  Viability +NC-022: 24 ± 8 % control
  Viability −NC-022: 72 ± 2 % control
KMS-18 cells; LU-005 9.0 μM 1 h
  Viability +NC-002 & NC-001: 0.8 ± 0.2 % control
  Viability +NC-022: 17.5 ± 7.5 % control
  Viability −NC-022: 45 ± 8 % control
MM1.R cells
  Viability +NC-002 & NC-001: 26 ± 6 % control
  Viability +NC-022: 66 ± 1 % control
  Viability −NC-022: 102 ± 4 % control
NCI-H929 cells; LU-005 0.0014 μM 1 h
  Viability +NC-002 & NC-001: 50 ± 17 % control
  Viability +NC-022: 77 ± 2 % control
  Viability −NC-022: 97 ± 9 % control
NCI-H929 cells; LU-005 0.004 μM 1 h
  Viability +NC-002 & NC-001: 36 ± 14 % control
  Viability +NC-022: 69 ± 0 % control
  Viability −NC-022: 100 ± 13 % control
KMS-12-BM cells; LU-005 0.037 μM 1 h
  Viability +NC-002 & NC-001: 50 ± 2 % control
  Viability +NC-022: 90 ± 5 % control
  Viability −NC-022: 89 ± 8 % control
KMS-12-BM cells; LU-005 0.33 μM 1 h
  Viability +NC-002 & NC-001: 2 ± 0 % control
  Viability +NC-022: 12 ± 2 % control
  Viability −NC-022: 80 ± 9 % control
KMS-12-BM cells; LU-005 1.0 μM 1 h
  Viability +NC-002 & NC-001: 1 ± 0 % control
  Viability +NC-022: 1.5 ± 0.1 % control
  Viability −NC-022: 27 ± 6 % control
RPMI-8226 cells; LU-005 0.037 μM 1 h
  Viability +NC-002 & NC-001: 76 ± 3 % control
  Viability +NC-022: 104 ± 5 % control
  Viability −NC-022: 109 ± 2 % control
RPMI-8226 cells; LU-005 0.33 μM 1 h
  Viability +NC-002 & NC-001: 4.6 ± 0.7 % control
  Viability +NC-022: 31 ± 9 % control
  Viability −NC-022: 94 ± 1 % control
RPMI-8226 cells; LU-005 1.0 μM 1 h
  Viability +NC-002 & NC-001: 1 ± 0 % control
  Viability +NC-022: 6 ± 3 % control
  Viability −NC-022: 10 ± 10 % control
